In PubChem BioAssay (NCI):
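1) Cells in 96-well plates. 2) Compound, 48 h, 5 concentrations. 3) Linear interpolation between surrounding doses. 4) Unreached endpoint = highest concentration. Here, GI50 denotes the concentration required for 50% inhibition of growth. TGI marks complete inhibition of growth.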

Tests used:
Test in all cases: NCI-60 cell line screen, 48 h
SW-620 colon = system: SW-620 colon
NCI/ADR-RES ovarian = system: NCI/ADR-RES ovarian
SF-295 CNS = system: SF-295 CNS
U251 CNS = system: U251 CNS
MALME-3M melanoma = system: MALME-3M melanoma
SN12C renal = system: SN12C renal
HS 578T breast = system: HS 578T breast
A549 NSCLC = system: A549 NSCLC
UACC-62 melanoma = system: UACC-62 melanoma
SR leukemia = system: SR leukemia

| SMILES | TGI (SW-620 colon) | TGI (NCI/ADR-RES ovarian) | TGI (SF-295 CNS) | TGI (U251 CNS) | TGI (MALME-3M melanoma) | TGI (SN12C renal) | TGI (HS 578T breast) | TGI (A549 NSCLC) | TGI (UACC-62 melanoma) | TGI (SR leukemia) | GI50 (SW-620 colon) | GI50 (NCI/ADR-RES ovarian) | GI50 (SF-295 CNS) | GI50 (SR leukemia) | GI50 (U251 CNS) | GI50 (MALME-3M melanoma) | GI50 (SN12C renal) | GI50 (HS 578T breast) | GI50 (A549 NSCLC) | GI50 (UACC-62 melanoma) |
| --- | --- | --- | --- | --- | --- | --- | --- | --- | --- | --- | --- | --- | --- | --- | --- | --- | --- | --- | --- | --- |
| C/C(=N\NS(=O)(=O)c1ccc(C)cc1)P(=O)(O)O | > 100 µM | > 100 µM | > 100 µM | > 100 µM | > 100 µM | > 100 µM | > 100 µM | > 100 µM | > 100 µM |  |  |  |  |  |  |  |  |  |  |  |
| CC(Nc1ccc(S(=O)(=O)N=C(N)N)cc1)c1c2ccccc2nc2ccccc12 (stereo not drawn) | > 100 µM |  | > 100 µM | > 100 µM | 65.6 µM | > 100 µM |  | > 100 µM | > 10 µM | 65.7 µM |  |  |  |  |  |  |  |  |  |  |
| CCN(CC)CCCNCc1cc(-c2ccccc2)nc2ccccc12 | 21.9 µM | 6.51 µM | 44.7 µM | 19.4 µM | 24.3 µM | > 100 µM | > 100 µM | > 100 µM | 8.37 µM | 13.1 µM | 2.75 µM | 2.35 µM | 16.5 µM | 0.348 µM | 4.16 µM | 7.2 µM | 4.52 µM | 16.8 µM | 81.6 µM | 2.55 µM |
| COc1ccc2ccccc2c1C1NC(=O)c2ccccc2N1 (stereo not drawn) | > 37.5 µM | 3.02 µM |  | 8.78 µM | > 100 µM | > 82.6 µM | > 31.3 µM | > 51.8 µM |  | 1.67 µM |  |  |  |  |  |  |  |  |  |  |
| O=C(Nc1ccc(Cl)c(Cl)c1)Nc1c(Oc2ccc(Cl)c(Cl)c2)ccc(Cl)c1S(=O)(=O)O | > 100 µM | > 100 µM |  | > 100 µM |  | > 100 µM | 8.79 µM | > 100 µM | > 100 µM | > 100 µM | 1.27 µM | 0.959 µM |  | 0.504 µM | 3.16 µM |  | 4.48 µM | 2.21 µM | 3.53 µM | 1.97 µM |
| C/C1=C/C(=O)O[C@@H]2C[C@@H](CC[C@H](C)/C=C\C=C\CC1)O[C@@](O)([C@@H]1CSC(=O)N1)C2 |  | > 10 µM | > 8.93 µM | > 10 µM | > 10 µM | > 10 µM | 0.512 µM | > 10 µM | > 10 µM | > 10 µM |  |  |  |  |  |  |  |  |  |  |
| C=CC(=O)Nc1cc(C)ccc1Nc1nc(Nc2cc(OC)ncc2C)ncc1C(F)(F)F | 3.23 µM | > 26.5 µM | > 100 µM | > 100 µM | 0.161 µM | > 100 µM | 4.86 µM | 4.59 µM | 0.71 µM |  | 0.322 µM | 1.69 µM | 2.84 µM |  | 0.758 µM | 0.0211 µM | 0.714 µM | 0.869 µM | 1.02 µM | 0.0725 µM |
| CO/N=C(\C)c1ccc(Nc2cc(-c3ccccc3)nc3ccc(OC)cc23)cc1 | 11.9 µM | 11.2 µM | 4.82 µM | 4.79 µM | 4.85 µM | 4.11 µM | 9.44 µM | 70.2 µM | 4.41 µM |  | 3.4 µM | 2.61 µM | 2.02 µM |  | 2.05 µM | 1.78 µM | 1.7 µM | 3.5 µM | 4.28 µM | 1.97 µM |
| O=c1ncc(F)cn1C1OC(CO)C(O)C1O (stereo not drawn) | > 100 µM |  | > 100 µM | > 56.6 µM | > 51.5 µM | > 60.4 µM |  | > 100 µM | > 64.1 µM | > 46.8 µM |  |  |  |  |  |  |  |  |  |  |
| COC(=O)C(C(=O)OC)C1CCCC(=O)C1 (stereo not drawn) | > 100 µM |  | > 100 µM | > 100 µM | > 100 µM | > 100 µM |  | > 100 µM | > 100 µM | > 100 µM |  |  |  |  |  |  |  |  |  |  |
| COC(=O)C(C(=O)C(=O)Nc1ccc([N+](=O)[O-])cc1[N+](=O)[O-])c1nc2ccc(Cl)cc2[nH]c1=O (stereo not drawn) | > 100 µM |  | > 100 µM |  | > 100 µM | > 100 µM |  | > 100 µM | > 100 µM |  |  |  |  |  |  |  |  |  |  |  |
| CN1C(=O)C2C3C=C4c5ccccc5N(c5ccccc5)C4(C2C1=O)[C@H]1C(=O)N(C)C(=O)[C@@H]31 (stereo partly drawn) | > 100 µM |  | > 100 µM | > 100 µM | > 100 µM | > 100 µM |  | > 100 µM | > 100 µM | > 100 µM |  |  |  |  |  |  |  |  |  |  |
| Cc1ccc(S(=O)(=O)NC2(C=O)CCCC3CCCCC32)cc1 (stereo not drawn) | > 100 µM |  |  | > 100 µM | > 100 µM | > 100 µM |  | > 100 µM | > 100 µM | > 100 µM |  |  |  |  |  |  |  |  |  |  |
| NC(=O)/N=C1/CCC2C3CCCC2C13 | > 100 µM |  | > 100 µM | > 100 µM |  | > 100 µM |  | > 100 µM | > 100 µM | > 100 µM |  |  |  |  |  |  |  |  |  |  |
| CCC[CH2][Sn]1([CH2]CCC)[O]CC(CN(C)Cc2ccccc2)[O]1 (stereo not drawn) | 11.1 µM |  | 22.4 µM | 17.8 µM | 9.21 µM | 21.9 µM |  | 38.6 µM | 16.1 µM | 23.7 µM | 2.77 µM |  | 9.13 µM | 4.31 µM | 5.75 µM | 2.72 µM | 10.1 µM |  | 19.6 µM | 4.31 µM |
| CC(=O)OC(C)(C)/C(C)=C/C(=O)O[C@H]1C(=O)O[C@@H]2C[C@H]3[C@H](C)C(=O)C(O[C@@H]4O[C@H](CO)[C@@H](O)[C@H](O)[C@H]4O)=C[C@]3(C)[C@H]3[C@@H](O)[C@H](O)[C@@]4(C(=O)O)OC[C@]32[C@@H]14 | > 100 µM | > 100 µM |  | > 100 µM | > 100 µM | > 100 µM | > 100 µM | > 100 µM | > 100 µM | > 100 µM | > 100 µM | > 100 µM |  | 48.5 µM |  | 55.9 µM | > 100 µM | > 100 µM | > 100 µM | > 100 µM |
| Cn1cnc([N+](=O)[O-])c1Sc1nccn1-c1cccc2ccccc12 | > 100 µM |  | > 100 µM | > 100 µM | 42.2 µM | > 100 µM |  | > 100 µM | 33.9 µM | 50.5 µM |  |  |  |  |  |  |  |  |  |  |
| Cc1cccc(C(C)(C)C)c1NC(=O)CC1C(=O)Nc2ccccc2S1(=O)=O (stereo not drawn) | 22.1 µM |  | 20 µM | 20.2 µM | 25.4 µM | 25.7 µM |  | 27.9 µM | 18.6 µM | 7.13 µM |  |  |  |  |  |  |  |  |  |  |
| Nc1nnnn1CCO | > 100 µM | > 100 µM | > 100 µM | > 100 µM | > 100 µM | > 100 µM | > 100 µM | > 100 µM | > 100 µM |  |  |  |  |  |  |  |  |  |  |  |
